# Measurements: PMC10392864, “Chukrasia tabularis limonoid plays anti-inflammatory role by regulating NF-κB signaling pathway in lipopolysaccharide-induced macrophages” (Food & Nutrition Research, 2023)
# Several values for one entry are separate records, joined by “and”; a condition that tells them apart may be missing. Equal entries are not always repeated.
# How the values were obtained:
# iNOS = experiment: Western blot, iNOS in LPS-treated macrophages; assay type: cell-based; details: Fig. 6
# Method: (§1) Western blot analysis was performed to observe the activities of limonin 2 on NF-κB P65, JAK, STAT, IKBα, IKKα, iNOS and eNOS protein levels. Macrophages were dispersed in 6 well plates for 24 h. After incubation, the cells were processed by HFPS and treated with LPS for 24 h. After treatment, cells were harvested and lysed. Western blot analysis was based on the methods described previously ([24]).
# (§2) To study the effect of limonin 2 on eNOS signaling cascade on LPS treated macrophages ([46]), the level of eNOS was measured. The upregulation of iNOS expression in LPS-treated macrophage was observed (Fig. 6A and B). Compound 2 inhibited the expression of iNOS stimulated by LPS in macrophage. At the same time, downregulation of eNOS protein expression was also found in LPS-stimulated macrophages (Fig. 6A and C).
# [1] = Cytotoxicity, SRB method, KB; assay type: cell-based, human; details: human, KB (oral epithelial) cells
# Method: (§3) Huh-7 (hepatoma), MCF-7 (human breast), KB (oral epithelial), Hela (cervical), H460 (lung), A-549 (lung), and HepG2 (hepatocellular) cancer cell lines (provided by Shanghai Cell Bank) were maintained in RPMI 1640 at 37 ℃, supplemented with 10% FBS. Cytotoxicity was determined by the SRB method, with 5-fluorouracil (5-FU) as a positive control. The IC50 value was calculated using the GraphPad prism program.
# eNOS = experiment: Western blot, eNOS in LPS-treated macrophages; assay type: cell-based; details: LPS-stimulated macrophages, Fig. 6
# Method: as §1, §2
# IKBα = experiment: Western blot, IKBα in LPS-treated macrophages; assay type: cell-based; details: Fig. 4
# Method: as §1
# (§4) The NF-κB signaling cascade plays an important role in the adjustment of inflammation ([43], [44]). The expression of NF-κB P65, IKB, and IKKα were measured by Western blot to investigate the anti-inflammatory mechanism of limonin 2. […] Limonin 2 inhibited the phosphorylation and degradation of IKBα (Fig. 4A, D and E) and IKKα (Fig. 4A, F and G).
# RAW264.7 cells = experiment: RAW264.7 cell viability, SRB assay; assay type: cell-based
# Method: The cytotoxicity of limonin 2 to RAW264.7 cells was detected by SRB assay. […] Therefore, compound 2 of 0–20 μm was used in subsequent experiments to avoid the influence of cytotoxic and anti-inflammatory effect detection.
# Fig. 2 Effect of compound 2 on RAW264.7 cells viability. RAW264.7 cells were treated by assigned concentration of compound 2 or DMSO for 24 h. The data are expressed as the mean ± SEM (n = 3). The cells viability (%) = (ODcompound 2 – ODDMSO)/ODDMSO ×100. *P < 0.05,**P < 0.01 compared with control cells treated by DMSO. Statistical differences were analyzed by unpaired t-test.
# [2] = Cytotoxicity, SRB method, A549; assay type: cell-based, human; details: human, A-549 (lung) cells
# Method: as §3
# IKKα = experiment: Western blot, IKKα in LPS-treated macrophages; assay type: cell-based; details: Fig. 4
# Method: as §1, §4
# [3] = Cytotoxicity, SRB method, MCF-7; assay type: cell-based, human; details: human, MCF-7 (human breast) cells
# Method: as §3
# [4] = Cytotoxicity, SRB method, Huh-7; assay type: cell-based, human; details: human, Huh-7 (hepatoma) cells
# Method: as §3
# STAT3 = experiment: Western blot, STAT3 in LPS-treated macrophages; assay type: cell-based; details: LPS-treated RAW264.7 cells, Fig. 5
# Method: as §1
# (§5) To study the effect of limonin 2 on the STAT signaling cascades of LPS-treated macrophage, the levels of JAK2 and STAT3 was measured ([45]).
# [5] = Cytotoxicity, SRB method, HepG2; assay type: cell-based, human; details: human, HepG2 (hepatocellular) cells
# Method: as §3
# JAK2 = experiment: Western blot, JAK2 in LPS-treated macrophages; assay type: cell-based; details: LPS-treated RAW264.7 cells, Fig. 5
# Method: as §1, §5
# [6] = Cytotoxicity, SRB method, Hela; assay type: cell-based, human; details: human, Hela (cervical) cells
# Method: as §3
# TNF-α = TNF-α production in LPS-induced macrophages, ELISA; assay type: cell-based; details: compound 2 at 2.3 and 9.2 μmol/L, LPS 1 μg/mL, 24 h, Fig. 3A
# Method: (§6) After 8 h of pre-incubation under 5% CO2 at 37°C, limonin 2 was added to the well plate, respectively, for 12 h. Then the cell of administration group and model group were induced with LPS (2 µg/mL) and the control group was treated with DMSO as contrast. The cell supernatants of samples were collected to detect the content of IL-6 and TNF-α by ELISA according to manufacturer protocol. And the normal range of IL-6 and TNF-αELISA kits is 3.75–120 pg/mL and 20–640 pg/mL, respectively.
# (§7) Fig. 3 Effects of compound 2 on the production of TNF-α, NO and IL-6 in LPS-induced macrophages. The macrophages were incubated with LPS (1 μg/mL) and treated with compound 2 (2.3 and 9.2 μmol/L) for 24 h. Indomethacin (INM) was used as the positive control. (A) The levels of TNF-α, (B) NO, and (C) IL-6 in the supernatant were assayed using ELISA kits. All values given are the mean ± SEM. *P <0.05, **P <0.01 compared with the LPS group.
# [7] = tested on: LPS-induced NO production in RAW264.7 cells; experiment: LPS-induced NO production in RAW264.7 cells (Griess reaction); assay type: cell-based
# Method: The inhibitory activities of compounds 1–16 on LPS stimulated macrophages was determined by Griess reaction. The NO content was detected by the NO kit according to the protocol described earlier ([23]). RAW264.7 cells obtained from the China Center for Cultivated Studies (Shanghai, China) were maintained in DMEM containing 10% FBS, and under 5% CO2 at 37°C. Briefly, the cells were seeded in a 96-well plate (1 × 10^5 cells/well), after 8 h of pre-incubation under 5% CO2 at 37°C, compounds 1–16 were added to the well plate, respectively, for 12 h. […] The supernatant of the cell culture were collected 24 h later.
# [8] = Cytotoxicity, SRB method, H460; assay type: cell-based, human; details: human, H460 (lung) cells
# Method: as §3
# IL-6 = IL-6 production in LPS-induced macrophages, ELISA; assay type: cell-based; details: compound 2 at 2.3 and 9.2 μmol/L, LPS 1 μg/mL, 24 h, Fig. 3C
# Method: as §6, §7
# NF-κB p-P65 = experiment: Western blot, NF-κB p-P65 in LPS-treated macrophages; assay type: cell-based; details: Fig. 4
# Method: as §1, §4
smiles,measurement,setting,value
"CCC(=O)OC1C2(O)C(OC(=O)C=CC(C)C)C3(C)CC24OC2(C)OC15C1CC(=O)OC(C6=CC(O)OC6=O)C1(C)CCC5(O2)C4(C)C3CC(=O)OC (centres unmarked) [Compound 2, Chukrasin F]",expression of iNOS stimulated by LPS (in words),iNOS,inhibited
same,IC50,[1],39.2 ± 2.17 µM
same,eNOS protein expression (in words),eNOS,completely restored
same,phosphorylation and degradation of IKBα (in words),IKBα,inhibited
same,viability of RAW264.7 cells (in words),"RAW264.7 cells; compound 2 at 0–20 μm, within 24 h",not notably affected
same,relative survival rate of RAW264.7 cells,"RAW264.7 cells; limonin 2 at 5 ~ 200 μM (seven rising concentrations, not listed singly), 24 h, SRB",100.7% and 96.3% and 93.9% and 88.0% and 76.4% and 64.4% and 56.7%
same,IC50,[2],54.7 ± 10.1 µM
same,phosphorylation and degradation of IKKα (in words),IKKα,inhibited
same,IC50,[3],23.4 ± 5.81 µM
same,IC50,[4],72.1 ± 13.5 µM
same,expression level of STAT3 (in words),STAT3,notably reduced
same,IC50,[5],69.4 ± 10.6 µM
same,expression level of JAK2 (in words),JAK2,notably reduced
same,IC50,[6],33.2 ± 8.41 µM
same,production of TNF-α in LPS-treated macrophages (in words),TNF-α,notably inhibited
same,IC50,"[7]; Mus musculus, RAW264.7 cells, LPS 2 µg/mL, supernatant after 24 h, read-out: IC50, inhibitory activity on LPS-induced NO production in RAW264.7 cells",4.58 ± 0.72 µM
same,production of NO in LPS-treated macrophages (in words),"[7]; compound 2 at 2.3 and 9.2 μmol/L, LPS 1 μg/mL, 24 h, Fig. 3B",notably inhibited
same,IC50,[8],60.8 ± 6.96 µM
same,production of IL-6 in LPS-treated macrophages (in words),IL-6,notably inhibited
same,expression of NF-κB p-P65 (in words),NF-κB p-P65,downregulates
